Article PMC6032158, “Structure–Activity Relationship of Piplartine and Synthetic Analogues against Schistosoma mansoni and Cytotoxicity to Mammalian Cells” (International Journal of Molecular Sciences, 2018)
“Also recorded” adds a separate entry of the source.

What was measured:
[1] = tested on: murine fibroblast (NIH-3T3) cells; assay: MTT cytotoxicity assay in murine fibroblasts; format: cell-based; parameters: Emax: dose or concentration left out as unconfirmed
Outline: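 NIH-3T3 cells exposed 24 h to samples at 25–800 µg/mL in 3% DMSO, with 3% DMSO as control. MTT (5 mg/mL stock) added for 2 h, formazan dissolved in DMSO, absorbance read at 595 nm.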

J774A.1 cells = assay: Cell death mechanism, annexin-V FITC / propidium iodide staining by flow cytometry; format: cell-based, mouse; settings: J774A.1, 24 h; piplartine 25 μg/mL, 14B 400 μg/mL
Experimental: Cells were then treated with 2 µL of annexin-V FITC (Apoptosis Detection Kit; BD Biosciences, Franklin Lakes, NJ, USA) and 2 µL of propidium iodide (PI, 50 µg/mL) for 15 min in the dark at room temperature. Next, 100 µL binding buffer was added and samples were analysed by flow cytometry (BD LSFortessa^TM, Franklin Lakes, NJ, USA). A total of 20,000 events were collected per sample.

[2] = tested on: S. mansoni schistosomula and adult worms; parameters: method as in PMID 20832410, PMID 22796749; settings: cited from earlier work
[3] = tested on: mouse BALB/cN macrophage (J774A.1) cell line; assay: Cell viability by flow cytometry in macrophages; settings: 24 h, 25, 100 and 400 µg/mL, vs DMEM control
[4] = tested on: 49-day-old S. mansoni adult worms; assay: In vitro experiments with adult worms of S. mansoni (mortality, motor activity); format: cell-based, Schistosoma mansoni; settings: for Dead Worms (%) F / Motor Activity Reduction (%) Significant F / Motor Activity Reduction (%) Slight F: female worms; for Dead Worms (%) M / Motor Activity Reduction (%) Significant M / Motor Activity Reduction (%) Slight M: male worms
Outline: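 BH-strain worm pairs recovered from hamsters 49 days post-infection, washed in RPMI 1640 with penicillin, streptomycin and amphotericin B, and cultured as mated pairs with or without drug for 96 h. Motor activity changes and death were scored by microscopy.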

COc1cc(/C=C/C(=O)N2CCC=CC2=O)cc(OC)c1OC [Piplartine, 3,4,5-trimethoxycinnamoyl-N-dihydropyridin-2-one]
effect on NIH-3T3 cell viability (in words) ([1]; MTT, 24 h exposure, 25 to 800 µg/mL): decreased cell viability after 24 h of exposure, exhibiting considerable toxicity; also recorded: showed toxicity at all concentrations tested | Emax ([1]; Mus musculus, NIH3T3, 24 h): 96.94 ± 0.12% | annexin-V FITC staining (apoptosis marker) vs DMEM negative control (in words) (J774A.1 cells): significant (p < 0.05) increase in annexin-V FITC staining | concentration with in vitro schistosomicidal activity [2]: 10 µM | effect on J774A.1 cell viability (in words) [3]: significantly (p < 0.05) affected cell viability at concentrations of 25 and 100 µg/mL | effect on J774A.1 cell viability (in words) ([3]; listed as piplartine): more toxic to mammalian cells than the analogues | Dead Worms (%) F ([4]; 5 µM, 24 h): 0% | Motor Activity Reduction (%) Significant F ([4]; 5 µM, 24 h): 0% | Motor Activity Reduction (%) Slight F ([4]; 5 µM, 24 h): 100% | Dead Worms (%) M ([4]; 5 µM, 24 h): 0% | Motor Activity Reduction (%) Significant M ([4]; 5 µM, 24 h): 0% | Motor Activity Reduction (%) Slight M ([4]; 5 µM, 24 h): 100% | Dead Worms (%) F ([4]; 5 µM, 48 h): 0% | Motor Activity Reduction (%) Significant F ([4]; 5 µM, 48 h): 0% | Motor Activity Reduction (%) Slight F ([4]; 5 µM, 48 h): 100% | Dead Worms (%) M ([4]; 5 µM, 48 h): 0% | Motor Activity Reduction (%) Significant M ([4]; 5 µM, 48 h): 0% | Motor Activity Reduction (%) Slight M ([4]; 5 µM, 48 h): 100% | Dead Worms (%) F ([4]; 5 µM, 72 h): 0% | Motor Activity Reduction (%) Significant F ([4]; 5 µM, 72 h): 0% | Motor Activity Reduction (%) Slight F ([4]; 5 µM, 72 h): 100% | Dead Worms (%) M ([4]; 5 µM, 72 h): 0% | Motor Activity Reduction (%) Significant M ([4]; 5 µM, 72 h): 0% | Motor Activity Reduction (%) Slight M ([4]; 5 µM, 72 h): 100% | Dead Worms (%) F ([4]; 5 µM, 96 h): 60% | Motor Activity Reduction (%) Significant F ([4]; 5 µM, 96 h): 60% | Motor Activity Reduction (%) Slight F ([4]; 5 µM, 96 h): 0% | Dead Worms (%) M ([4]; 5 µM, 96 h): 60% | Motor Activity Reduction (%) Significant M ([4]; 5 µM, 96 h): 60% | Motor Activity Reduction (%) Slight M ([4]; 5 µM, 96 h): 0% | Dead Worms (%) F ([4]; 10 µM, 24 h): 100% | Motor Activity Reduction (%) Significant F ([4]; 10 µM, 24 h): 100% | Motor Activity Reduction (%) Slight F ([4]; 10 µM, 24 h): 0% | Dead Worms (%) M ([4]; 10 µM, 24 h): 100% | Motor Activity Reduction (%) Significant M ([4]; 10 µM, 24 h): 100% | Motor Activity Reduction (%) Slight M ([4]; 10 µM, 24 h): 0% | Dead Worms (%) F ([4]; 10 µM, 48 h): 100% | Motor Activity Reduction (%) Significant F ([4]; 10 µM, 48 h): 100% | Motor Activity Reduction (%) Slight F ([4]; 10 µM, 48 h): 0% | Dead Worms (%) M ([4]; 10 µM, 48 h): 100% | Motor Activity Reduction (%) Significant M ([4]; 10 µM, 48 h): 100% | Motor Activity Reduction (%) Slight M ([4]; 10 µM, 48 h): 0% | Dead Worms (%) F ([4]; 10 µM, 72 h): 100% | Motor Activity Reduction (%) Significant F ([4]; 10 µM, 72 h): 100% | Motor Activity Reduction (%) Slight F ([4]; 10 µM, 72 h): 0% | Dead Worms (%) M ([4]; 10 µM, 72 h): 100% | Motor Activity Reduction (%) Significant M ([4]; 10 µM, 72 h): 100% | Motor Activity Reduction (%) Slight M ([4]; 10 µM, 72 h): 0% | Dead Worms (%) F ([4]; 10 µM, 96 h): 100% | Motor Activity Reduction (%) Significant F ([4]; 10 µM, 96 h): 100% | Motor Activity Reduction (%) Slight F ([4]; 10 µM, 96 h): 0% | Dead Worms (%) M ([4]; 10 µM, 96 h): 100% | Motor Activity Reduction (%) Significant M ([4]; 10 µM, 96 h): 100% | Motor Activity Reduction (%) Slight M ([4]; 10 µM, 96 h): 0% | concentrations active against S. mansoni ([4]; adult worms): 5 to 10 µM | activity against S. mansoni adult worms (in words) ([4]; analogues 50, 25, 10 and 5 μM, piplartine 5 and 10 μM, up to 96 h): showed activity against the parasite 24 h after incubation
